Measured values taken from ChEMBL document CHEMBL3734705, “Synthesis and in vitro cytotoxicity of novel C-12 substituted-14-deoxy-andrographolide derivatives as potent anti-cancer agents” (2015).
Activity calls are given as the source filed them. The rule behind the calls is not given here.

Legend:
[1] = Cytotoxicity against human OVCAR3 cells assessed as growth inhibition at 10 uM after 48 hrs by SRB assay; assay type: functional; settings: OVCAR-3, 48 h, read-out: GI
[2] = Cytotoxicity against human Hs578T cells assessed as growth level at 10 uM after 48 hrs by SRB assay; assay type: functional, Hs-578T
[3] = Cytotoxicity against human HL-60(TB) cells assessed as growth inhibition at 10 uM after 48 hrs by SRB assay; assay type: functional; settings: HL-60, 48 h, read-out: GI
SK-MEL-5 = test: Cytotoxicity against human SK-MEL-5 cells assessed as growth inhibition at 10 uM after 48 hrs by SRB assay; assay type: functional; settings: SK-MEL-5, 48 h, read-out: GI
[4] = Cytotoxicity against human SF268 cells after 48 hrs by SRB assay; assay type: functional; settings: SF-268, 48 h
[5] = Cytotoxicity against human DU145 cells after 48 hrs by SRB assay; assay type: functional; settings: DU-145, 48 h
[6] = Cytotoxicity against human OVCAR3 cells assessed as growth level at 10 uM after 48 hrs by SRB assay; assay type: functional, OVCAR-3
ACHN = test: Cytotoxicity against human ACHN cells after 48 hrs by SRB assay; assay type: functional
[7] = Cytotoxicity against human OVCAR8 cells assessed as growth level at 10 uM after 48 hrs by SRB assay; assay type: functional, OVCAR-8
MDA-MB-435 [8] = test: Cytotoxicity against human MDA-MB-435 cells assessed as growth level at 10 uM after 48 hrs by SRB assay; assay type: functional
[9] = Cytotoxicity against human SNB75 cells assessed as growth level at 10 uM after 48 hrs by SRB assay; assay type: functional, SNB-75
MDA-MB-435 [10] = test: Cytotoxicity against human MDA-MB-435 cells assessed as growth inhibition at 10 uM after 48 hrs by SRB assay; assay type: functional; settings: MDA-MB-435, 48 h, read-out: GI
KM12 [11] = test: Cytotoxicity against human KM12 cells assessed as growth level at 10 uM after 48 hrs by SRB assay; assay type: functional
NCI-H522 = test: Cytotoxicity against human NCI-H522 cells after 48 hrs by SRB assay; assay type: functional; settings: NCI-H522, 48 h
HT-29 = test: Cytotoxicity against human HT-29 cells assessed as growth inhibition at 10 uM after 48 hrs by SRB assay; assay type: functional; settings: HT-29, 48 h, read-out: GI
[12] = Cytotoxicity against human SNB19 cells assessed as growth inhibition at 10 uM after 48 hrs by SRB assay; assay type: functional; settings: SNB-19, 48 h, read-out: GI
[13] = Cytotoxicity against human OVCAR3 cells after 48 hrs by SRB assay; assay type: functional; settings: OVCAR-3, 48 h
[14] = Cytotoxicity against human RPMI8226 cells assessed as growth level at 10 uM after 48 hrs by SRB assay; assay type: functional, RPMI-8226
[15] = Cytotoxicity against human HCT15 cells assessed as growth inhibition at 10 uM after 48 hrs by SRB assay; assay type: functional; settings: HCT-15, 48 h, read-out: GI
[16] = Cytotoxicity against human UACC257 cells assessed as growth level at 10 uM after 48 hrs by SRB assay; assay type: functional, UACC-257
SR = test: Cytotoxicity against human SR cells assessed as growth level at 10 uM after 48 hrs by SRB assay; assay type: functional
[17] = Cytotoxicity against human NCI-ADR-RES cells assessed as growth level at 10 uM after 48 hrs by SRB assay; assay type: functional
[18] = Cytotoxicity against human HOP92 cells assessed as growth inhibition at 10 uM after 48 hrs by SRB assay; assay type: functional; settings: HOP-92, 48 h, read-out: GI
[19] = Cytotoxicity against human HOP92 cells after 48 hrs by SRB assay; assay type: functional; settings: HOP-92, 48 h
786-0 = test: Cytotoxicity against human 786-0 cells assessed as growth inhibition at 10 uM after 48 hrs by SRB assay; assay type: functional; settings: 786-0, 48 h, read-out: GI
CCRF-CEM = test: Cytotoxicity against human CCRF-CEM cells after 48 hrs by SRB assay; assay type: functional; settings: for CC50: read-out: LC50 (the source's name)
[20] = Cytotoxicity against human MOLT4 cells after 48 hrs by SRB assay; assay type: functional; settings: MOLT-4, 48 h
MDA-MB-468 [21] = test: Cytotoxicity against human MDA-MB-468 cells assessed as growth level at 10 uM after 48 hrs by SRB assay; assay type: functional
EKVX [22] = test: Cytotoxicity against human EKVX cells after 48 hrs by SRB assay; assay type: functional
[23] = Cytotoxicity against human LOXIMVI cells after 48 hrs by SRB assay; assay type: functional; settings: LOX IMVI
[24] = Cytotoxicity against human SF295 cells after 48 hrs by SRB assay; assay type: functional; settings: SF-295, 48 h
[25] = Cytotoxicity against human SW620 cells assessed as growth level at 10 uM after 48 hrs by SRB assay; assay type: functional, SW-620
KM12 [26] = test: Cytotoxicity against human KM12 cells assessed as growth inhibition at 10 uM after 48 hrs by SRB assay; assay type: functional; settings: KM12, 48 h, read-out: GI
[27] = Cytotoxicity against human UO31 cells assessed as growth inhibition at 10 uM after 48 hrs by SRB assay; assay type: functional; settings: UO-31, 48 h, read-out: GI
MDA-MB-468 [28] = test: Cytotoxicity against human MDA-MB-468 cells after 48 hrs by SRB assay; assay type: functional; settings: MDA-MB-468, 48 h
NCI-H322M = test: Cytotoxicity against human NCI-H322M cells assessed as growth inhibition at 10 uM after 48 hrs by SRB assay; assay type: functional
EKVX [29] = test: Cytotoxicity against human EKVX cells assessed as growth level at 10 uM after 48 hrs by SRB assay; assay type: functional
KM12 [30] = test: Cytotoxicity against human KM12 cells after 48 hrs by SRB assay; assay type: functional; settings: KM12, 48 h
SN12C = test: Cytotoxicity against human SN12C cells after 48 hrs by SRB assay; assay type: functional

C=C1CC[C@@H]2[C@](C)(COC(C)=O)[C@H](OC(C)=O)CC[C@@]2(C)[C@@H]1C/C=C1/C(=O)OC[C@H]1OC(C)=O
inhibition of growth at 10 µM [1]: 21.3%
Activity [2]: 100.18%
inhibition of growth at 10 µM [3]: 20.9%
inhibition of growth at 10 µM (SK-MEL-5): 43.8%
GI50 [4]: 8.56 µM
LC50 [4]: 55.5 µM
TGI [4]: 22.7 µM
GI50 [5]: 4.47 µM
LC50 (concentration killing 50% of cells) [5]: 38.4 µM
TGI [5]: 14.7 µM
Activity [6]: -21.32%
GI50 (ACHN): 1.71 µM
LC50 (ACHN): 6.06 µM
TGI (ACHN): 3.22 µM
Activity [7]: 27.13%
Activity (MDA-MB-435 [8]): 33.07%
Activity [9]: 44.87%
inhibition of growth at 10 µM (MDA-MB-435 [10]): 66.9%
Activity (KM12 [11]): 52.83%
GI50 (NCI-H522): 1.52 µM
LC50 (NCI-H522): 8.67 µM
TGI (NCI-H522): 3.63 µM
inhibition of growth at 10 µM (HT-29): 39.4%
inhibition of growth at 10 µM [12]: 17%
GI50 [13]: 2.17 µM
LC50 (concentration killing 50% of cells) [13]: 8.15 µM
TGI [13]: 4.21 µM
Activity [14]: 14.12%
inhibition of growth at 10 µM [15]: 23%
Activity [16]: 66.52%
Activity (SR): 5.73%
Activity [17]: 24.99%
inhibition of growth at 10 µM [18]: 28.1%
GI50 [19]: 13.2 µM
LC50 [19]: 52.7 µM
TGI [19]: 26.4 µM
inhibition of growth at 10 µM (786-0): 10.9%
GI50 (CCRF-CEM): 1.12 µM
TGI (CCRF-CEM): 5.32 µM
CC50 (CCRF-CEM): > 100 µM
GI50 [20]: 3.8 µM
LC50 [20]: > 100 µM
TGI [20]: 16.1 µM
Activity (MDA-MB-468 [21]): 7.98%
GI50 (EKVX [22]): 12.9 µM
LC50 (EKVX [22]): 50.9 µM
TGI (EKVX [22]): 25.6 µM
GI50 [23]: 1.42 µM
LC50 [23]: 5.73 µM
TGI [23]: 2.85 µM
GI50 [24]: 13.3 µM
LC50 [24]: 54.2 µM
TGI [24]: 26.8 µM
Activity [25]: -21.85%
inhibition of growth at 10 µM (KM12 [26]): 47.2%
inhibition of growth at 10 µM [27]: 37.2%
GI50 (MDA-MB-468 [28]): 2.04 µM
LC50 (MDA-MB-468 [28]): 74.4 µM
TGI (MDA-MB-468 [28]): 5.69 µM
growth inhibition (GI) (NCI-H322M): inactive
Activity (EKVX [29]): 102.98%
GI50 (KM12 [30]): 10.5 µM
LC50 (KM12 [30]): 73.4 µM
TGI (KM12 [30]): 27.7 µM
GI50 (SN12C): 3.07 µM
LC50 (concentration killing 50% of cells) (SN12C): 72 µM
TGI (SN12C): 13.3 µM

C=C1CC[C@@H]2[C@](C)(COC(C)=O)[C@H](OC(C)=O)CC[C@@]2(C)[C@@H]1CC(Nc1ccc(S(=O)(=O)NC(C)=O)cc1)C1=CCOC1=O (mixture of isomers)
Activity [2]: 32.45%
GI50 [4]: 8.78 µM
LC50 [4]: 47.9 µM
TGI [4]: 20.5 µM
GI50 [5]: 2.8 µM
LC50 (concentration killing 50% of cells) [5]: 27 µM
TGI [5]: 9.74 µM
Activity [6]: -87.71%
GI50 (ACHN): 7.54 µM
LC50 (ACHN): 36.3 µM
TGI (ACHN): 16.5 µM
Activity [7]: -18.21%
Activity (MDA-MB-435 [8]): -38.84%
Activity [9]: 26.28%
Activity (KM12 [11]): -34%
GI50 (NCI-H522): 1.44 µM
LC50 (NCI-H522): 24.1 µM
TGI (NCI-H522): 4.42 µM
GI50 [13]: 1.49 µM
LC50 (concentration killing 50% of cells) [13]: 6.13 µM
TGI [13]: 3.02 µM
Activity [14]: -16.18%
Activity [16]: -10.57%
Activity (SR): 2.08%
Activity [17]: 11.87%
GI50 [19]: 6.5 µM
LC50 [19]: 35.5 µM
TGI [19]: 15.9 µM
GI50 (CCRF-CEM): 1.93 µM
TGI (CCRF-CEM): 6.26 µM
CC50 (CCRF-CEM): > 75 µM
GI50 [20]: 2.2 µM
LC50 [20]: > 75 µM
TGI [20]: 6.66 µM
Activity (MDA-MB-468 [21]): -53.94%
GI50 (EKVX [22]): 10.8 µM
LC50 (EKVX [22]): 40.3 µM
TGI (EKVX [22]): 20.9 µM
GI50 [23]: 1.25 µM
LC50 [23]: 4.67 µM
TGI [23]: 2.42 µM
GI50 [24]: 11.5 µM
LC50 [24]: 42.2 µM
TGI [24]: 22 µM
Activity [25]: -65.65%
GI50 (MDA-MB-468 [28]): 1.53 µM
LC50 (MDA-MB-468 [28]): 6.39 µM
TGI (MDA-MB-468 [28]): 3.13 µM
Activity (EKVX [29]): 57.45%
GI50 (KM12 [30]): 5.11 µM
LC50 (KM12 [30]): 40.5 µM
TGI (KM12 [30]): 15.9 µM
GI50 (SN12C): 1.78 µM
LC50 (concentration killing 50% of cells) (SN12C): 39.2 µM
TGI (SN12C): 5.4 µM
